Literature values in US8455478B2, “Rapid onset liquid midazolam composition for buccal administration” (Special Products, Ltd., priority 2010, dated 2013).

Conditions: pH 8, aqueous solution

For `Cc1ncc2n1-c1ccc(Cl)cc1C(c1ccccc1F)=NC2` [midazolam, 8-chloro-6-(2-fluorophenyl)-1-methyl-4H-imidazo[1,5-a][1,4]], the solubility of midazolam is given as 55 µg/mL.
